Test results reported in PMC10586324 (Journal of medicinal chemistry, 2023).
Where two headings read alike, the source gives them in different places.

Legend:
[1] = test system: Mabs ATCC19977; assay: MBC determination by CFU counting
[2] = Nephelometry kinetic solubility screen in PBS; assay type: physicochemical
[3] = Plasma stability, murine plasma; assay type: in vitro ADME; details: 1 μM, 120 min
[4] = test system: HEP 93 liver cancer cell line; details: cited from earlier work
[5] = test system: Mabs; details: enantiomers; cited from earlier work
[6] = oral administration, mice; cited from earlier work
[7] = oral administration, rats; cited from earlier work

O=C(N[C@H](Cc1ccccc1)C(=O)Nc1ccccc1N1CC[S+]([O-])CC1)c1ccccc1F [Compound 15]
MBC99 as multiple of MIC90 [1]: 2 X MIC90 | solubility relative to MMV688845 [2]: approximately 5 times

O=C(N[C@H](Cc1ccccc1)C(=O)Nc1ccccc1N1CCS(=O)(=O)CC1)c1cccs1 [Compound 20]
MBC99 as multiple of MIC90 [1]: 2 X MIC90

O=C(N[C@H](Cc1ccccc1)C(=O)Nc1ccccc1N1CCS(=O)(=O)CC1)c1ccccc1F [Compound 24]
stability in murine plasma [3]: improved stability

O=C(N[C@H](Cc1ccccc1)C(=O)Nc1ccccc1N1CCOCC1)c1cccs1 [MMV688845, Nα-2-thiophenoyl-D-phenylalanine-2-morpholinoanilide]
MBC99 as multiple of MIC90 [1]: 8 X MIC90 | reduction of viable bacteria ([1]; at 6.25 μM (derivatives: 6.25 μM and higher)): no reduction | cytotoxicity HEP 93 [4]: non-cytotoxic | activity against Mabs [5]: shows activity | drug plasma levels [6]: low drug plasma levels | drug plasma levels [7]: low drug plasma levels | stability in murine plasma [3]: stronger decline in concentration than compound 24
